Laboratory results as given in patent US7517884B2 (Kalypsys Inc., priority 1998, dated 2009).

What was measured:
Type in all cases: cell-based, murine and human
Conditions in all cases: GAL4-PPAR LBD chimera
PPAR-alpha = target: T1, PPAR-alpha (UniProt Q07869); experiment: PPAR-alpha transactivation assay (GAL4 chimera, luciferase reporter) in CV-1 cells
T1 sequence (Q07869 1-468): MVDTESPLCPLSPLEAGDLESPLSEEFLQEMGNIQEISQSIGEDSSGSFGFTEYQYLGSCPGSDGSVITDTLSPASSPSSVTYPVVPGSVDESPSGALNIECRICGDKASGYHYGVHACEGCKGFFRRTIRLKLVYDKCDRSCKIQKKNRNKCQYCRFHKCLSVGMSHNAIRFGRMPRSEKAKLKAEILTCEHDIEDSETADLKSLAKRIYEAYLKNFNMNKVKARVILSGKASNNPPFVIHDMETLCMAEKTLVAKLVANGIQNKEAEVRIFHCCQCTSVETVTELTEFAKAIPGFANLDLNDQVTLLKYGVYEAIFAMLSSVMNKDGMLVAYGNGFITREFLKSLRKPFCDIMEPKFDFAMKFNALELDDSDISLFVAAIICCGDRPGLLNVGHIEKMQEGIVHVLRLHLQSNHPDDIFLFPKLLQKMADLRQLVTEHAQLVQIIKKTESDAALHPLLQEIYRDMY
Description: (§1) Compounds may be screened for functional potency in transient transfection assays in CV-1 cells for their ability to activate the PPAR subtypes (transactivation assay). A previously established chimeric receptor system was utilized to allow comparison of the relative transcriptional activity of the receptor subtypes on the same synthetic response element and to prevent endogenous receptor activation from complicating the interpretation of results. See, for example, Lehmann, J. M.; Moore, L. B.; Smith-Oliver, T. A; Wilkinson, W. O.; Willson, T. M.; Kliewer, S. A., An antidiabetic thiazolidinedione is a high affinity ligand for peroxisome proliferator-activated receptor […], J. Biol. Chem., 1995, 270, 12953-6. The ligand binding domains for murine and human PPAR-alpha, PPAR-gamma, and PPAR-delta are each fused to the yeast transcription factor GAL4 DNA binding domain. CV-1 cells were transiently transfected with expression vectors for the respective PPAR chimera along with a reporter construct containing four or five copies of the GAL4 DNA binding site driving expression of luciferase. After 8-16 h, the cells are replated into multi-well assay plates and the media is exchanged to phenol-red free DME medium supplemented with 5% delipidated calf serum. 4 hours after replating, cells were treated with either compounds or 1% DMSO for 20-24 hours. Luciferase activity was then assayed with Britelite (Perkin Elmer) following the manufacturer's protocol and measured with either the Perkin Elmer Viewlux or Molecular Devices Acquest (see, for example, Kliewer, S. A., et. al. Cell 1995, 83, 813-819). Rosiglitazone is used as a positive control in the PPARγ assay. Wy-14643 and GW7647 are used as positive controls in the PPARα assay. GW501516 is used as the positive control in the PPARδ assay.
(§2) Compounds of Examples 1-141 were assayed to measure their biological activity with respect to their EC50 values for modulating PPAR-alpha, PPAR-gamma, and PPAR-delta as set forth in Table 1.

PPAR-delta = target: T2, PPAR-delta (UniProt Q03181); experiment: PPAR-delta transactivation assay (GAL4 chimera, luciferase reporter) in CV-1 cells
T2 sequence (Q03181 1-441): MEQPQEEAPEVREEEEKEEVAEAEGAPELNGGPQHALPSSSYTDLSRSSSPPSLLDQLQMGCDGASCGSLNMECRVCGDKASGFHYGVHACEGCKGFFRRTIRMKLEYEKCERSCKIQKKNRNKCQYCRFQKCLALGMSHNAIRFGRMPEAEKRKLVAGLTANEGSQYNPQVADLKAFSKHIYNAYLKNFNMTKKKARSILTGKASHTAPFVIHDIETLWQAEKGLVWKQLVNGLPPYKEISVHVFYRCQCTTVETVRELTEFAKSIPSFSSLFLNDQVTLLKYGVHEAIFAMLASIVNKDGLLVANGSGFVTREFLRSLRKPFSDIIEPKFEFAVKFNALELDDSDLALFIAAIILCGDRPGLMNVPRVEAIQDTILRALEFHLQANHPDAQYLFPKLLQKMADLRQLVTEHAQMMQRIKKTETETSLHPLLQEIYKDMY
Description: as §1, §2

PPAR-gamma = target: T3, PPAR-gamma (UniProt P37231); experiment: PPAR-gamma transactivation assay (GAL4 chimera, luciferase reporter) in CV-1 cells
T3 sequence (P37231 1-505): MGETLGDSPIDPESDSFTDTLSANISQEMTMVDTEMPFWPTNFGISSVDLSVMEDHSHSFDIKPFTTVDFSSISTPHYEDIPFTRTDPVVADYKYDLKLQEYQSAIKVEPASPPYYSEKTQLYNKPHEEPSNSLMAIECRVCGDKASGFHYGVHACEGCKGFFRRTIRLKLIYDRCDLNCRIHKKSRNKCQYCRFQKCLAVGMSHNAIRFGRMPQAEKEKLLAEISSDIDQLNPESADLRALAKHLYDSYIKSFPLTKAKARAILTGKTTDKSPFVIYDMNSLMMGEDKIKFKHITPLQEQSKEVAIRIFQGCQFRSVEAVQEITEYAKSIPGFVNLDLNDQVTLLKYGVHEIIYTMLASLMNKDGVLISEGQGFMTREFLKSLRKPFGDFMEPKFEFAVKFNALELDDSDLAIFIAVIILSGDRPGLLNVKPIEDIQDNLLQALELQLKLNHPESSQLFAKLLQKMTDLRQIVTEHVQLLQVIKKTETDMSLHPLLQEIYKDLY
Description: as §1, §2

Row | Compound | EC50 (PPAR-alpha) [µM] | EC50 (PPAR-delta) [µM] | EC50 (PPAR-gamma) [µM]
1 | C[C@@H]1CN(c2ccc(C(F)(F)F)cn2)C[C@H](C)N1S(=O)(=O)c1ccc2c(c1)C(C)(C(=O)O)CC2 (stereo partly drawn) [Example 28, 6-[cis-2,6-dimethyl-4-(5-trifluoromethyl-pyridin-2-yl)-piperazine-1-sulfonyl]-1-methyl-indan-1-carboxylic acid] | > 100 | < 5 | 5 to 100
2 | COc1cc2c(cc1S(=O)(=O)N1CCN(c3ccc(Cl)c(Cl)c3)CC1)CCC2CC(=O)O (stereo not drawn) [Example 30, {5-[4-(3,4-dichloro-phenyl)-piperazine-1-sulfonyl]-6-methoxy-indan-1-yl}-acetic acid] | 5 to 100 | 5 to 100 | 5 to 100
3 | O=C(O)Cn1ccc2cc(S(=O)(=O)N3CCN(c4ccc(C(F)(F)F)cc4)CC3)ccc21 [Example 31, {5-[4-(4-Trifluoromethyl-phenyl)-piperazine-1-sulfonyl]-indol-1-yl}-acetic acid] | > 100 | 5 to 100 | > 100
4 | O=C(O)Cn1ccc2cc(Br)c(S(=O)(=O)N3CCN(c4ccc(C(F)(F)F)cc4)CC3)cc21 [Example 32, {5-Bromo-6-[4-(4-trifluoromethyl-phenyl)-piperazine-1-sulfonyl]-indol-1-yl}-acetic acid] | > 100 | < 5 | 5 to 100
5 | O=C(O)Cn1ccc2cc(Br)c(S(=O)(=O)N3CCN(c4ccc(C(F)(F)F)cn4)CC3)cc21 [Example 33, {5-Bromo-6-[4-(5-trifluoromethyl-pyridin-2-yl)-piperazine-1-sulfonyl]-indol-1-yl}-acetic acid] | > 100 | < 5 | 5 to 100
6 | O=C(O)Cn1ccc2ccc(S(=O)(=O)N3CCN(c4ccc(C(F)(F)F)cc4)CC3)cc21 [Example 34, {6-[4-(4-Trifluoromethyl-phenyl)-piperazine-1-sulfonyl]-indol-1-yl}-acetic acid] | > 100 | < 5 | 5 to 100
7 | O=C(O)Cn1ccc2ccc(S(=O)(=O)N3CCN(c4ccc(C(F)(F)F)cn4)CC3)cc21 [Example 35, {6-[4-(5-trifluoromethyl-pyridin-2-yl)-piperazine-1-sulfonyl]-indol-1-yl}-acetic acid] | 5 to 100 | < 5 | 5 to 100
8 | COc1ccc2c(CC(=O)O)csc2c1S(=O)(=O)N1CCN(c2ccc(C(F)(F)F)cn2)CC1 [Example 36, {6-Methoxy-7-[4-(5-trifluoromethyl-pyridin-2-yl)-piperazine-1-sulfonyl]-benzo[b]thiophen-3-yl}-acetic acid] | > 100 | > 100 | 5 to 100
9 | O=C(O)Cc1csc2ccc(S(=O)(=O)N3CCN(c4ccc(C(F)(F)F)cn4)CC3)cc12 [Example 37, {5-[4-(5-Trifluoromethyl-pyridin-2-yl)piperazine-1-sulfonyl]-benzo[b]thiophen-3-yl}-acetic acid] | 5 to 100 | < 5 | < 5
10 | O=C(O)Cc1csc2ccc(S(=O)(=O)N3CCN(c4ccc(C(F)(F)F)cc4)CC3)cc12 [Example 41, {5-[4-(4-trifluoromethyl-phenyl)-piperazine-1-sulfonyl]-benzo[b]thiophen-3-yl}-acetic acid] | 5 to 100 | < 5 | 5 to 100
11 | CC1CN(c2ccc(C(F)(F)F)cn2)CCN1S(=O)(=O)c1ccc2scc(CC(=O)O)c2c1 (stereo not drawn) [Example 42, {5-[2-methyl-4-(5-trifluoromethyl-pyridin-2-yl)-piperazine-1-sulfonyl]-benzo[b]thiophen-3-yl}-acetic acid] | 5 to 100 | < 5 | 5 to 100
12 | C[C@@H]1CN(c2ccc(C(F)(F)F)cn2)C[C@H](C)N1S(=O)(=O)c1ccc2scc(CC(=O)O)c2c1 [Example 43, {5-[2,6-dimethyl-4-(5-trifluoromethyl-pyridin-2-yl)-piperazine 1-sulfonyl]-benzo[b]thiophen-3-yl}-acetic acid] | > 100 | < 5 | 5 to 100
13 | CC1CN(S(=O)(=O)c2ccc3scc(CC(=O)O)c3c2)C(C)CN1c1ccc(C(F)(F)F)cn1 (stereo not drawn) [Example 44, {5-[2,5-dimethyl-4-(5-trifluoromethyl-pyridin-2-yl)-piperazine-1-sulfonyl]-benzo[b]thiophen-3-yl}-acetic acid] | > 100 | < 5 | 5 to 100

Second part, the compound after the results:

Row | EC50 (PPAR-alpha) [µM] | EC50 (PPAR-delta) [µM] | EC50 (PPAR-gamma) [µM] | Compound
14 | 5 to 100 | < 5 | 5 to 100 | C[C@@H]1CN(c2ccc(C(F)(F)F)cn2)C[C@H](C)N1S(=O)(=O)c1ccc2c(c1)C(C(=O)O)CC2 (stereo partly drawn) [Example 27, 6-[cis-2,6-dimethyl-4-(5-trifluoromethyl-pyridin-2-yl)-piperazine-1-sulfonyl]-indan-1-carboxylic acid]
15 | 5 to 100 | 5 to 100 | 5 to 100 | COc1cc2c(cc1S(=O)(=O)N1CCN(c3ccc(C(F)(F)F)cc3)CC1)CCC2CC(=O)O (stereo not drawn) [Example 29, {6-methoxy-5-[4-(4-trifluoromethyl-phenyl)-piperazine-1-sulfonyl]-indan-1-yl}-acetic acid]
16 | < 5 | < 5 | < 5 | CC1(C)CN(c2ccc(C(F)(F)F)cn2)CCN1S(=O)(=O)c1ccc2c(c1)C(C(=O)O)CC2 (stereo not drawn) [Example 38, 6-[2,2-Dimethyl-4-(5-trifluoromethyl-pyridin-2-yl)-piperazine-1-sulfonyl]-indan-1-carboxylic acid]
17 | < 5 | < 5 | < 5 | COC(=O)[C@H]1CN(S(=O)(=O)c2ccc3c(c2)C(C(=O)O)CC3)CCN1c1ccc(C(F)(F)F)cn1 (stereo partly drawn) [Example 39, (R)-4-(3-Carboxy-indane-5-sulfonyl)-1-(5-trifluoromethyl-pyridin-2-yl)-piperazine-2-carboxylic acid methyl ester]
18 | < 5 | < 5 | < 5 | COC(=O)[C@@H]1CN(S(=O)(=O)c2ccc3c(c2)C(C(=O)O)CC3)CCN1c1ccc(C(F)(F)F)cn1 (stereo partly drawn) [Example 40, (S)-4-(3-carboxy-indane-5-sulfonyl)-1-(5-trifluoromethyl-pyridin-2-yl)-piperazine-2-carboxylic acid methyl ester]
19 | < 5 | < 5 | < 5 | O=C(O)C1CCc2ccc(S(=O)(=O)N3CCN(c4ccc(C(F)(F)F)cc4F)CC3)cc21 (stereo not drawn) [Example 45, 6-[4-(2-fluoro-4-trifluoromethyl-phenyl)-piperazine-1-sulfonyl]-indan-1-carboxylic acid]
20 | < 5 | < 5 | < 5 | O=C(O)C1CCc2ccc(S(=O)(=O)N3CCN(c4ccc(Cl)c(Cl)c4)CC3)cc21 (stereo not drawn) [Example 46, 6-[4-(3,4-dichloro-phenyl)-piperazine-1-sulfonyl]-indan-1-carboxylic acid]
